Reference: PMC6327263, “Evaluation of Novel 3-Hydroxyflavone Analogues as HDAC Inhibitors against Colorectal Cancer” (Advances in Pharmacological Sciences, 2018)

Legend:
[1] = tested on: acetyl histone H3K9; experiment: Western blotting, acetyl histone H3K9 expression; format: cell-based, human; conditions: HCT116 cells, 24 h, compared to normal control
Method: After various treatments for 24 h, cells were lysed, and protein quantification of the lysates was estimated using the BCA™ kit (Thermo Fisher Scientific Inc., Waltham, MA, USA). Proteins samples (30 µg) were resolved on a 10% SDS-PAGE and transferred onto a PVDF membrane and blocked with 5% nonfat milk in TBST (tris-buffered saline with Tween-20) buffer for 1 h followed by washing in TBST buffer. The membrane was then probed with primary antibodies (GAPDH, HDAC8, p21^Waf1/Cip1, and acetyl-histone H3[Ac-Lys^9]) and incubated overnight at 4°C. The membrane was washed with TBST buffer and incubated with horseradish peroxidase-conjugated secondary antibody for 1 h at room temperature. Signal was captured using SuperSignal™ West Pico Plus chemiluminescent substrate (Thermo Fischer Scientific Inc., Waltham, MA, USA) on gel documentation system (G : BOX Chemi XRQ, Syngene). The protein band densities were estimated using the software ImageJ (version 1.46r, NIH, Bethesda, MD, USA).

[2] = tested on: Wistar rats; format: in vivo; conditions: 2000 mg/kg p.o., limit test, 14 days observation
Method: Animal care and handling were carried out according to the guidelines of the Committee for the Purpose of Control and Supervision of Experiments on Animals (CPCSEA), after seeking the approval of the research proposal by institutional animal ethics committee (IAEC) (IAEC/KMC/23/2015). Male Wistar rats inbred at the central animal research facility (CARF), Manipal academy of higher education (MAHE), was used in the present study. […] The animals were housed in sterile polypropylene cages containing sterile paddy husk and were provided with 12 h light and dark cycles.
The safe dose of the promising two analogues (QMJ-2 and QMJ-5) and quercetin were evaluated using Organization for Economic Cooperation and Development (OECD), 425 guidelines. Limit test was performed using 2000 mg/kg dose.

SMILES	expression of acetylated histone H3K9 [1]	acute toxicity, tolerability [2]	mortality [2]
Cc1ccc(-c2oc3cc(C)ccc3c(=O)c2O)cc1 [QMJ-5, 3-Hydroxy-7-methyl-2-(4-methylphenyl)-4H-1-benzopyran-4-one]	significant increase	–	–
O=c1c(O)c(-c2ccc(O)c(O)c2)oc2cc(O)cc(O)c12 [Quercetin, quercetin, reference compound]	–	safe and well tolerated	no mortality
